Measured values: patent US12221453B2, “Substituted pyrazolo[5′,1′:2,3]pyrimido[5,4-b][1,4]oxazines as TYK2 inhibitors” (TAKEDA PHARMACEUTICAL COMPANY LIMITED, priority 2018, dated 2025)

Each compound was assayed on IL-12 induced STAT4 phosphorylation mediated by TYK2/JAK2 (assay: IL-12 induced pSTAT4 in human PBMC). Details: 1 hr compound, 1.7 ng/mL IL-12 for 30 minutes.
Type: cell-based
How it was run: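 Thawed human PBMC were pre-incubated with compound for 1 hr at 37 °C (0.1% DMSO), then stimulated with 1.7 ng/mL IL-12 for 30 minutes. Phospho-STAT4 and total STAT4 were measured in cell lysates by MSD.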

Compound | IC50
CNc1cc(-c2cn(C3COC3)c3ncccc23)nc2c(C(=O)NC3CCC3(F)F)cnn12 (stereo not shown) [Compound I-673] | < 0.1 µM
CNc1cc(-c2cn(C3COC3)c3ncccc23)nc2c(C(=O)N[C@@H]3CCC3(F)F)cnn12 [Compound I-675] | < 0.1 µM
CNc1cc(-c2cn(C3CN(C)C3)c3ncccc23)nc2c(C(=O)NC3CCC3(F)F)cnn12 (stereo not shown) [Compound I-676] | < 0.1 µM
CNc1cc(-c2cn([C@H]3C[C@@H](O)C3)c3ncccc23)nc2c(C(=O)NC3CCC3(F)F)cnn12 (stereo partly shown) [Compound I-677] | < 0.1 µM
CNc1cc(-c2cn(C3CCCC3)c3ncccc23)nc2c(C(=O)NC3CCC3(F)F)cnn12 (stereo not shown) [Compound I-680] | < 0.1 µM
CNc1cc(-c2cn(C3CCCC3)c3ncccc23)nc2c(C(=O)N[C@@H]3CCC3(F)F)cnn12 [Compound I-681] | < 0.1 µM
CNc1cc(-c2cn(C3CCCC3)c3ncccc23)nc2c(C(=O)N[C@H]3CCC3(F)F)cnn12 [Compound I-685] | < 0.1 µM
CNc1cc(-c2cn([C@@H]3CCN(C)C3)c3ncccc23)nc2c(C(=O)NC3CCC3(F)F)cnn12 (stereo partly shown) [Compound I-686] | < 0.1 µM
CNc1cc(-c2cn([C@@H]3COC[C@H]3O)c3ncccc23)nc2c(C(=O)NC3CCC3(F)F)cnn12 (stereo partly shown) [Compound I-692] | < 0.1 µM
CNc1cc(-c2cn([C@@H]3COC[C@H]3O)c3ncccc23)nc2c(C(=O)N[C@H]3CCC3(F)F)cnn12 [Compound I-693] | < 0.1 µM
CNc1cc(-c2cn([C@H]3COC[C@@H]3O)c3ncccc23)nc2c(C(=O)NC3CCC3(F)F)cnn12 (stereo partly shown) [Compound I-695] | < 0.1 µM
CNc1cc(-c2cn(C3CCOCC3)c3ncccc23)nc2c(C(=O)N[C@H]3CCC3(F)F)cnn12 [Compound I-699] | < 0.1 µM
CNc1cc(-c2cn([C@@H]3CCOC[C@@H]3OC)c3ncccc23)nc2c(C(=O)NC3CCC3(F)F)cnn12 (stereo partly shown) [Compound I-702] | < 0.1 µM
CNc1cc(-c2cn([C@@H]3CCOC[C@@H]3OC)c3ncccc23)nc2c(C(=O)N[C@H]3CCC3(F)F)cnn12 [Compound I-703] | < 0.1 µM
CNc1cc(-c2cn([C@H]3CC3(F)F)c3ncccc23)nc2c(C(=O)N[C@@H]3COC[C@@H]3O)cnn12 [Compound I-711] | < 0.1 µM
CNc1cc(-c2cn([C@H]3CCC[C@H]3F)c3ncccc23)nc2c(C(=O)N[C@H]3COC[C@H]3O)cnn12 [Compound I-722] | < 0.1 µM
CNc1cc(-c2cn([C@H]3COC[C@H]3F)c3ncccc23)nc2c(C(=O)N[C@H]3COC[C@H]3O)cnn12 [Compound I-726] | < 0.1 µM
CNc1cc(-c2cn([C@H]3COC[C@@H]3OC)c3ccccc23)nc2c(C(=O)NC3CC[C@@H]3OC)cnn12 (stereo partly shown) [Compound I-741] | < 0.1 µM
CNc1cc(-c2cn([C@H]3COC[C@@H]3OC)c3ccccc23)nc2c(C(=O)N[C@H]3CC[C@@H]3OC)cnn12 [Compound I-742] | < 0.1 µM

Compound | IC50
CNc1cc(-c2cn([C@@H]3COC[C@H]3OC)c3ccccc23)nc2c(C(=O)NC3CC[C@@H]3OC)cnn12 (stereo partly shown) [Compound I-744] | < 0.1 µM
CNc1cc(-c2cn([C@@H]3COC[C@H]3OC)c3ccccc23)nc2c(C(=O)N[C@@H]3CC[C@H]3OC)cnn12 [Compound I-746] | < 0.1 µM
O=C(N[C@@H]1C[C@@H]1F)c1cnn2c3c(c(Nc4cccc5ocnc45)nc12)OCCN3 [Compound I-752] | < 0.1 µM
CC(C)n1cc(-c2nc3c(C(=O)NC4CC[C@H]4O)cnn3c3c2OCCN3)c2cccnc21 (stereo partly shown) [Compound I-753] | < 0.1 µM
CC(C)n1cc(-c2nc3c(C(=O)N[C@H]4CC[C@H]4O)cnn3c3c2OCCN3)c2cccnc21 [Compound I-754] | < 0.1 µM
O=C(NC1CC[C@@H]1F)c1cnn2c3c(c(-c4cn([C@H]5C[C@H](O)C5)c5ncccc45)nc12)OCCN3 (stereo partly shown) [Compound I-756] | < 0.1 µM
O=C(N[C@H]1CC[C@@H]1F)c1cnn2c3c(c(-c4cn([C@H]5C[C@H](O)C5)c5ncccc45)nc12)OCCN3 [Compound I-757] | < 0.1 µM
CO[C@@H]1CC[C@H]1NC(=O)c1cnn2c3c(c(Nc4cccn(C(C)C)c4=O)nc12)OCCN3 [Compound I-760] | < 0.1 µM
CO[C@@H]1CCC1NC(=O)c1cnn2c3c(c(Nc4cccn([C@H]5[C@@H]6COC[C@@H]65)c4=O)nc12)OCCN3 (stereo partly shown) [Compound I-762] | < 0.1 µM
CC(C)n1cccc(Nc2nc3c(C(=O)NC4CCC4(F)F)cnn3c3c2OCCN3)c1=O (stereo not shown) [Compound I-765] | < 0.1 µM
CC(C)n1cccc(Nc2nc3c(C(=O)N[C@H]4CCC4(F)F)cnn3c3c2OCCN3)c1=O [Compound I-766] | < 0.1 µM
O=C(NC1CCC1(F)F)c1cnn2c3c(c(Nc4cccn([C@H]5[C@@H]6COC[C@@H]65)c4=O)nc12)OCCN3 (stereo partly shown) [Compound I-768] | < 0.1 µM
O=C(N[C@@H]1CCC1(F)F)c1cnn2c3c(c(Nc4cccn([C@H]5[C@@H]6COC[C@@H]65)c4=O)nc12)OCCN3 [Compound I-769] | < 0.1 µM
O=C(N[C@@H]1CCC1(F)F)c1cnn2c3c(c(-c4cn(C5COC5)c5ncccc45)nc12)OCCN3 [Compound I-772] | < 0.1 µM
O=C(NC1CC[C@@H]1F)c1cnn2c3c(c(-c4cn(C5COC5)c5ncccc45)nc12)OCCN3 (stereo partly shown) [Compound I-774] | < 0.1 µM
O=C(N[C@H]1CCC1(F)F)c1cnn2c3c(c(-c4cn([C@H]5C[C@H](O)C5)c5ncccc45)nc12)OCCN3 [Compound I-776] | < 0.1 µM
CNc1cc(Nc2cccn([C@H]3C[C@@H](OC)C3)c2=O)nc2c(C(=O)NC3CC[C@@H]3OC)cnn12 (stereo partly shown) [Compound I-780] | < 0.1 µM
CNc1ccc(-c2cc(NC)n3ncc(C(=O)N[C@H]4CC[C@H]4F)c3n2)n2ccnc12 [Compound I-784] | < 0.1 µM

Second part, the compound after the results:

IC50 | Compound
< 0.1 µM | CNc1cc(-c2cn([C@@H]3COC[C@H]3OC)c3ccccc23)nc2c(C(=O)N[C@H]3CC[C@H]3O)cnn12 [Compound I-787]
< 0.1 µM | CNc1cc(-c2cn([C@H]3COC[C@@H]3OC)c3ccccc23)nc2c(C(=O)N[C@H]3CC[C@H]3O)cnn12 [Compound I-790]
< 0.1 µM | CNc1cc(-c2cn(CCOC)c3ncccc23)nc2c(C(=O)NC3CC[C@@H]3OC)cnn12 (stereo partly shown) [Compound I-795]
< 0.1 µM | CNc1cc(-c2cn([C@H]3CCOC[C@H]3OC)c3ncccc23)nc2c(C(=O)N[C@H]3CC[C@@H]3F)cnn12 [Compound I-796]
< 0.1 µM | CNc1cc(-c2cn([C@@H]3CCOC[C@@H]3OC)c3ncccc23)nc2c(C(=O)N[C@H]3CC[C@@H]3F)cnn12 [Compound I-798]
< 0.1 µM | CNc1cc(-c2cn([C@H]3CCOC[C@@H]3F)c3ncccc23)nc2c(C(=O)N[C@H]3CC[C@@H]3OC)cnn12 [Compound I-802]
< 0.1 µM | CNc1cc(-c2cn([C@@H]3CCOC[C@H]3F)c3ncccc23)nc2c(C(=O)N[C@H]3CC[C@@H]3OC)cnn12 [Compound I-804]
< 0.1 µM | CNc1cc(-c2cn([C@@H]3CCC4(C3)OCCO4)c3ncccc23)nc2c(C(=O)N[C@H]3CC[C@@H]3OC)cnn12 [Compound I-806]
< 0.1 µM | CNc1cc(-c2cn([C@H]3CCC4(C3)OCCO4)c3ncccc23)nc2c(C(=O)N[C@H]3CC[C@@H]3OC)cnn12 [Compound I-808]
< 0.1 µM | CNc1cc(-c2cn([C@H]3CCOC[C@H]3OC)c3ncccc23)nc2c(C(=O)N[C@@H]3CCC3(F)F)cnn12 [Compound I-811]
< 0.1 µM | CNc1cc(-c2cnc3n([C@H]4COC[C@@H]4O)cccc2-3)nc2c(C(=O)NC3CC3)cnn12 [Compound I-816]
< 0.1 µM | CNc1cc(-c2cnc3n([C@@H]4COC[C@H]4O)cccc2-3)nc2c(C(=O)NC3CC3)cnn12 [Compound I-817]
< 0.1 µM | CNc1cc(-c2cnc3n([C@H]4CCOC[C@@H]4O)cccc2-3)nc2c(C(=O)NC3CC3)cnn12 [Compound I-819]
< 0.1 µM | CNc1cc(-c2cnc3n([C@H]4COC[C@@H]4O)cccc2-3)nc2c(C(=O)N[C@@H]3C[C@@H]3F)cnn12 [Compound I-820]
< 0.1 µM | CNc1cc(-c2cnc3n([C@@H]4CCOC[C@H]4O)cccc2-3)nc2c(C(=O)N[C@@H]3C[C@@H]3F)cnn12 [Compound I-824]
< 0.1 µM | CNc1cc(-c2cnc3n([C@H]4CCOC[C@@H]4O)cccc2-3)nc2c(C(=O)N[C@@H]3C[C@@H]3F)cnn12 [Compound I-825]
< 0.1 µM | CNc1cc(-c2cnc3n([C@@H]4COC[C@H]4O)cccc2-3)nc2c(C(=O)NC3CC[C@@H]3F)cnn12 (stereo partly shown) [Compound I-827]
< 0.1 µM | CNc1cc(-c2cnc3n([C@H]4COC[C@@H]4O)cccc2-3)nc2c(C(=O)N[C@H]3CC[C@@H]3F)cnn12 [Compound I-828]
< 0.1 µM | CNc1cc(-c2cnc3n([C@@H]4COC[C@H]4O)cccc2-3)nc2c(C(=O)N[C@H]3CC[C@@H]3F)cnn12 [Compound I-830]
< 0.1 µM | CNc1cc(-c2cnc3n([C@H]4COC[C@@H]4OC)cccc2-3)nc2c(C(=O)N[C@H]3CC[C@@H]3F)cnn12 [Compound I-833]
< 0.1 µM | CNc1cc(-c2cnc3n([C@@H]4COC[C@H]4OC)cccc2-3)nc2c(C(=O)NC3CC[C@@H]3F)cnn12 (stereo partly shown) [Compound I-835]
< 0.1 µM | CNc1cc(-c2cnc3n([C@H]4COC[C@@H]4OC)cccc2-3)nc2c(C(=O)NC3CC[C@H]3F)cnn12 (stereo partly shown) [Compound I-838]
< 0.1 µM | CNc1cc(-c2cnc3n([C@H]4COC[C@@H]4OC)cccc2-3)nc2c(C(=O)N[C@H]3CC[C@H]3F)cnn12 [Compound I-839]
< 0.1 µM | CNc1cc(-c2cnc3n([C@H]4COC[C@@H]4OC)cccc2-3)nc2c(C(=O)N[C@@H]3CC[C@@H]3F)cnn12 [Compound I-840]
< 0.1 µM | CNc1cc(-c2cnc3n([C@@H]4COC[C@H]4OC)cccc2-3)nc2c(C(=O)NC3CC[C@H]3F)cnn12 (stereo partly shown) [Compound I-841]
< 0.1 µM | CNc1cc(-c2cnc3n([C@@H]4CCOC[C@H]4O)cccc2-3)nc2c(C(=O)N[C@H]3CC[C@@H]3F)cnn12 [Compound I-848]
< 0.1 µM | CNc1cc(-c2cnc3n([C@@H]4COC[C@H]4O)cccc2-3)nc2c(C(=O)N[C@@H]3CC[C@H]3OC)cnn12 [Compound I-876]
